These results are taken from patent US5292736A, “Morpholinoalkylindenes as antiglaucoma agents” (Sterling Winthrop Inc., priority 1993, dated 1994).

pIC50: −log10 of the molar value. Read-outs that look alike come from different tables or passages of the source.

The subject of one test is mouse vas deferens. Nature of the test: mouse vas deferens test (MVD), screening for analgesic activity. It is filed as cell-based. To be noted: considered active at 5.0 μM or less. The procedure: (§1) In standard biological test procedures, compounds of formula I were tested for analgesic and cannabinoid receptor activity. The mouse vas deferens test correlates well with analgesic activity and has long been used to screen for such activity. Cannabinoid receptor binding is characteristic and predictive of the efficacy of intraocular pressure reducing compounds and was thus used to test the compounds of formula I for antiglaucoma activity.
The mouse vas deferens test (MVD), a means of screening for analgesic activity, is disclosed in U.S. Pat. No. 4,840,950, which is incorporated herein by reference.

Test [1] has as its system acetylcholine-induced abdominal constriction. Nature of the test: acetylcholine-induced abdominal constriction test (ACH), oral. It is filed as in vivo. The note with it: oral administration. The source says:
Data obtained by the oral administration of the invention in the acetylcholine-induced abdominal constriction test (ACH), a measure of analgesic effectiveness, are expressed in the table below as the ED50 in mg/kg or as the percent inhibition at a given dose level in mg/kg. The acetyl choline-induced abdominal constriction test (ACH) is described in Brit. J. Pharmacol., 32: 295 (1968) and U.S. Pat. No. 4,581,534, incorporated herein by reference.

The target of a further test is T1, cannabinoid receptor (Rattus norvegicus, UniProt P20272).
T1 construct: Brain tissue from rats was homogenized; from tissue; host or cells: rat brain, washed homogenate membranes
Nature of the test: cannabinoid receptor binding test (CR), predictive of antiglaucoma activity. Here is the method: as §1
Data from the cannabinoid receptor binding test (CR), predictive of antiglaucoma activity, was obtained as follows:
Brain tissue from rats was homogenized in ice cold 20 mM HEPES-NaOH, pH 7.0, diluted approximately 1:100 (w/v) with the same buffer and centrifuged at 48,000 g for 10 minutes at 4° C. The pellet was washed by resuspension and centrifugation as above. The final pellet was suspended (1:120 w/v) in 20 mM HEPES-NaOH, pH 7.0 and stored on ice for use within 1 hour.
Compounds (10 mM) were solubilized in a mixture of 0.3 N methane sulfonic acid - 13.5% ethanol. Cannabinoids were dissolved in absolute ethanol. Other compounds were dissolved in dimethylsulfoxide (DMSO). All compounds were diluted in 20 mM HEPES, pH 7.0 containing 5 mg/ml bovine serum albumin (BSA).
The final assay concentration of BSA was 1.0 mg/ml in these experiments. Final assay concentrations of ≤50 mM ethanol, ≤1×10^-3 N methane sulfonic acid, ≤2.5 mM ethanol+3×10^-4 N methane sulfonic acid or ≤3% DMSO had no effect on specific binding. The possible effects of all vehicles were controlled in each assay.
The assay was started with the addition of homogenate and the tubes incubated at 30° C. for 90 min in a shaking waterbath. Each tube contained 20 mM HEPES-NaOH buffer, pH 7.0, 1.0 mg/ml BSA, competing drug or vehicle, and 100-125 μg membrane protein in a 1 ml incubation volume. Saturation studies were conducted over 3 log units of radioligand concentration (0.1-22 nM). Specific binding was defined as the difference in binding in the presence and absence of 1.0 μM unlabeled 2-[(3-chloro-4-hydroxyphenyl)amino]benzene methanol, a molecule that is known to […] bind to cannabinoid receptors.
Samples were filtered over Whatman GF/B filters with 20 ml of 20 mM HEPES, pH 7.0, containing 0.5 mg/ml BSA. Radioactivity on the filters, expressed in dpm, was measured by liquid scintillation spectrometry. Assays were conducted in triplicate and experiments were repeated at least three times.
The results for the CR test are IC50 concentrations (in nM) or % inhibition at 1 μM and 30 μM concentrations.

The mark [2] stands for this setting: 1 μM; rat brain membranes, pH 7.0, 30° C., 90 min.
Setting [3] is: 30 μM; rat brain membranes, pH 7.0, 30° C., 90 min.
[4] abbreviates: rat brain membranes, pH 7.0, 30° C., 90 min; read-out: CR IC50.

T1 sequence (P20272 whole entry): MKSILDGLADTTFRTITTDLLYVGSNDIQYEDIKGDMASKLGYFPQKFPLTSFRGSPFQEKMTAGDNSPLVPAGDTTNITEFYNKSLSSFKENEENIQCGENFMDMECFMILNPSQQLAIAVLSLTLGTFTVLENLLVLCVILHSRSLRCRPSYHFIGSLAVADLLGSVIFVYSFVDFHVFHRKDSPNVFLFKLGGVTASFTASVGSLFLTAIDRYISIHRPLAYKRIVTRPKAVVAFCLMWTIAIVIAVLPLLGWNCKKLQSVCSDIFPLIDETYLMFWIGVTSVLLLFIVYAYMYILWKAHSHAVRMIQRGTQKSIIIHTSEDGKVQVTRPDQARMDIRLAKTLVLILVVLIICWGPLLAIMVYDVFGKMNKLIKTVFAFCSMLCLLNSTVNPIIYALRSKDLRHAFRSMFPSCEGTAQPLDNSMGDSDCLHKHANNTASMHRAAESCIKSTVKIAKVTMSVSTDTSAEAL

As to `COc1ccc(C=C2C=C(CCN3CCOCC3)c3ccccc32)cc1` [Example 1, 4-[2-[1-[(4-methoxyphenyl)methylene]-1H-inden-3-yl)ethyl]morpholine], the pIC50 (as a rule, the negative decadic logarithm of the IC50, by convention in mol/L) in the test on mouse vas deferens was 7.10; at cannabinoid receptor (read-out: CR IC50; rat brain membranes, pH 7.0, 30° C., 90 min) it was 7.24. Besides, the ED50 (commonly the dose that gives a 50% effect, or the effect in half of the subjects) in test [1] was found to be 46 mg/kg.

Consider `C(=C1C=C(CCN2CCOCC2)c2ccccc21)c1ccccc1` [Example 2], for which the pIC50 with mouse vas deferens is 7.10. Moreover, the 50% effect level in test [1] (ED50) was put at a dose of 65 mg/kg. The inhibition (usually how much of the control response was suppressed) at 1 µM on cannabinoid receptor (setting [2]) is 33%.

On to `COc1ccc(C=C2C(C)=C(CCN3CCOCC3)c3ccccc32)cc1` [Example 3], for which the “Ach percent inhibition at 100 mg/kg” value in test [1] is reported as 30%. The inhibition at 1 µM on cannabinoid receptor (setting [2]) was 45%.

Compound `CSc1ccc(C=C2C=C(CCN3CCOCC3)c3ccccc32)cc1` [Example 4] registered an ED50 in test [1] of 50 mg/kg. In addition, the inhibition at 1 µM on cannabinoid receptor (setting [2]) was 96%.

Consider `Fc1ccc(C=C2C=C(CCCN3CCOCC3)c3ccccc32)cc1` [Example 5], for which, in test [1], the ED50 was 52 mg/kg. Besides, the inhibition at 30 µM on cannabinoid receptor (setting [3]) is 5%.

Take `CN(C)c1ccc(C=C2C=C(CCN3CCOCC3)c3ccccc32)cc1` [Example 6]: the ED50 in test [1] was 103 mg/kg. The inhibition at 30 µM on cannabinoid receptor (setting [3]) was 88%.

In test [1], `Fc1ccccc1C=C1C=C(CCN2CCOCC2)c2ccccc21` [Example 7] displayed an ED50 of 86 mg/kg. Moreover, the inhibition at 30 µM at cannabinoid receptor (setting [3]) is 78%.

Take `COc1ccc(C=C2C=C(CCN3CCOCC3)c3ccccc32)c2ccccc12` [Example 8]: the pIC50 with mouse vas deferens is 8.10; at cannabinoid receptor (setting [4]) it was 9.05. This compound also registered an ED50 in test [1] of 3.2 mg/kg.

For `C(=C1C=C(CCN2CCOCC2)c2ccccc21)c1cccc2ccccc12` [Example 9], the pIC50 is 8.15 with mouse vas deferens and 9.00 on cannabinoid receptor (setting [4]). For the same compound, the “Ach percent inhibition at 10 mg/kg” value in test [1] (10 mg/kg) worked out at 83%.

As for `CC1=C(CCN2CCOCC2)c2ccccc2C1=Cc1cccc2ccccc12` [Example 10], the values for the pIC50 in the test with mouse vas deferens and at cannabinoid receptor (setting [4]) were 7.35 and 8.00, respectively. This compound also gave an ED50 in test [1] of 34 mg/kg.

Take `CC1=C(CCN2CCOCC2)c2ccccc2C1=Cc1ccnc2ccccc12` [Example 11]: the pIC50 in the test with mouse vas deferens is 5.78. In addition, the “Ach percent inhibition at 100 mg/kg” value in test [1] came to 40%.

As for `C(=C1C=C(CCCN2CCOCC2)c2ccccc21)c1cccc2ccccc12` [Example 12], in the test with mouse vas deferens, the pIC50 was 7.02. The “Ach percent inhibition at 100 mg/kg” value in test [1] stood at 30%. The inhibition at 1 µM on cannabinoid receptor (setting [2]) is 97%.

Consider `COc1ccc(C=C2C=C(CCN3CCOCC3)c3ccccc32)cc1OC` [Example 13], for which the pIC50 is 7.72 with mouse vas deferens and 7.55 on cannabinoid receptor (setting [4]). Moreover, the ED50 in test [1] worked out at 19 mg/kg.

Turning to `C(=Cc1ccccc1)C=C1C=C(CCN2CCOCC2)c2ccccc21` [Example 14], in test [1], the “Ach percent inhibition at 100 mg/kg” value is reported as 20%. Besides, the inhibition at 1 µM at cannabinoid receptor (setting [2]) is 68%.

Take `COc1ccc(C=C2C=C(CCCN3CCOCC3)c3ccccc32)c2ccccc12` [Example 15]: in test [1], the “Ach percent inhibition at 100 mg/kg” value turned out to be 10%. Further, at cannabinoid receptor (setting [4]), the pIC50 was 7.92.

Take `COc1ccc(C=C2C(C)=C(CCN3CCOCC3)c3ccccc32)c2ccccc12` [Example 16]: the pIC50 with mouse vas deferens was 6.46. Also, the “Ach percent inhibition at 100 mg/kg” value in test [1] is 30%.

In turn, `N#Cc1ccc(C=C2C=C(CCN3CCOCC3)c3ccccc32)cc1` [Example 17] gave an ED50 in test [1] of 100 mg/kg. Besides, the inhibition at 1 µM at cannabinoid receptor (setting [2]) is 76%.

`C(=C1C=C(CCN2CCOCC2)c2ccccc21)c1cccc2[nH]ccc12` [Example 18] had a pIC50 in the test with mouse vas deferens of 6.51. In addition, the 50% effective dose (ED50) in test [1] worked out at 15 mg/kg.

On to `Oc1ccc(C=C2C=C(CCN3CCOCC3)c3ccccc32)c2ccccc12` [Example 19], for which the ED50 in test [1] turned out to be 2.7 mg/kg. Moreover, the inhibition at 1 µM on cannabinoid receptor (setting [2]) was 97%.

The compound `C(=C1C=C(CCN2CCOCC2)c2ccccc21)c1c2ccccc2cc2ccccc12` [Example 20] showed a pIC50 in the test with mouse vas deferens of 6.09.

As to `C[S+]([O-])c1ccc(C=C2C=C(CCN3CCOCC3)c3ccccc32)cc1` (centres unmarked) [Example 21, 4-[2-[[1-[4-(methylsulfinyl)phenyl]methylene]-1H-inden-3-yl]ethyl]morpholine], the pIC50 in the test on mouse vas deferens is 6.71. The same compound had an ED50 in test [1] of 25 mg/kg.

Take `COc1ccc(C(=O)OC(=C2C=C(CCN3CCOCC3)c3ccccc32)c2ccc(OC)cc2)cc1` [Example 22, (4-methoxyphenyl)[3-(2-[4-morpholinyl)ethyl)-1H-inden-1-ylidine]methyl 4-methoxy benzoate]: the “Ach percent inhibition at 100 mg/kg” value in test [1] is on record as 10%. Besides, the inhibition at 1 µM at cannabinoid receptor (setting [2]) is 51%.
